Experimental findings from US20240092779A1, “USP1 INHIBITORS AND USES THEREOF” (Zentaur Therapeutics USA Inc., priority 2022, published 2024) are described below.

One assay deals with HCC1806 Ub-PCNA (USP1). The assay is described as follows: USP1 Western Blot Protocol (HCC1806 Ub-PCNA). Format: cell-based. The conditions noted are these: Homo sapiens, HCC1806 cells, 4 hours. The gist of the method: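 HCC1806 cells seeded overnight, then treated 4 h at 37 °C with a 5-point, 4-fold dilution series (0.1% DMSO). Lysates immunoblotted for Ub-PCNA with fluorescent detection; inhibition expressed as % vehicle from Ub-PCNA upregulation, IC50 by four-parameter logistic fit.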
(In general: A western blot detects proteins with antibodies after separation by electrophoresis.)

Another assay deals with MDA-MB-436 cells. The assay is described as follows: CTG Protocol (MDA-MB-436 GI50), antiproliferative activity. Conditions: Homo sapiens, 168 h; MDA-MB-436 cells (BRCA1 mutation), 7-day incubation, CellTiter-Glo. It is filed as cell-based, human. In outline:
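BRCA1-mutant MDA-MB-436 cells were seeded at 1000 cells/well in DMEM, left overnight, then exposed to a 9-point, 3-fold compound series for 7 days at 37 °C, 5% CO2. Viability was read by CellTiter-Glo luminescence. % inhibition was plotted against concentration to derive GI50.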
On the technique in general: Cellular ATP, detected with luciferase, serves as a proxy for viable cell number.

The target in assay [1] is T1, recombinant USP1/UAF1 enzyme complex (Homo sapiens, UniProt O94782).
T1 construct: purchased Biortus
The assay is described as follows: Enzyme assay: deubiquitinase fluorometric assay with ubiquitin-Rhodamine substrate. Format: biochemical. The conditions noted are these: USP1/UAF1, Ub-Rho110 substrate, 2 hours preincubation, 1 hour reaction. The protocol:
Enzymatic inhibitory potency of the compounds was assessed in a deubiquitinase fluorometric assay using ubiquitin-Rhodamine (Ub-Rho110, R&D Systems) as substrate and the recombinant USP1/UAF1 enzyme complex (Biortus). Assays were performed in a final volume of 12 μL using black 384-well plates (Corning #4514) containing 50 mM HEPES (pH 7.5, BioRoYee), 0.5 mM EDTA, 1 mM dithiothreitol, 0.1 mg/mL bovine serum albumin, 50 nM Ub-Rhol10, 0.004 nM USP1/UAF1, and series diluted compounds from 10 μM to 0.5 nM (10 dilution steps). Assay-ready plates containing 40 nL of Echo-dispensed compound in DMSO were reconstituted with 2 μL of ddH2O, then 5 μL of USP1/UAF1 enzyme mixture was added and preincubated at room temperature for 2 hours. Enzymatic reaction was initiated by the addition of […] substrate mixture and assay allowed to proceed for 1 hour at room temperature before quenching with 3 μL of 150 mM citric acid. Fluorescence signal was detected via TECAN SPARK with excitation at 485 nm and emission at 535 nm. Data analysis was done using GraphPad Prism8 and IC50 values were obtained by 4-parameter logistic curve fitting.
Certain compounds were tested in the assays.

T1 sequence (O94782 whole entry): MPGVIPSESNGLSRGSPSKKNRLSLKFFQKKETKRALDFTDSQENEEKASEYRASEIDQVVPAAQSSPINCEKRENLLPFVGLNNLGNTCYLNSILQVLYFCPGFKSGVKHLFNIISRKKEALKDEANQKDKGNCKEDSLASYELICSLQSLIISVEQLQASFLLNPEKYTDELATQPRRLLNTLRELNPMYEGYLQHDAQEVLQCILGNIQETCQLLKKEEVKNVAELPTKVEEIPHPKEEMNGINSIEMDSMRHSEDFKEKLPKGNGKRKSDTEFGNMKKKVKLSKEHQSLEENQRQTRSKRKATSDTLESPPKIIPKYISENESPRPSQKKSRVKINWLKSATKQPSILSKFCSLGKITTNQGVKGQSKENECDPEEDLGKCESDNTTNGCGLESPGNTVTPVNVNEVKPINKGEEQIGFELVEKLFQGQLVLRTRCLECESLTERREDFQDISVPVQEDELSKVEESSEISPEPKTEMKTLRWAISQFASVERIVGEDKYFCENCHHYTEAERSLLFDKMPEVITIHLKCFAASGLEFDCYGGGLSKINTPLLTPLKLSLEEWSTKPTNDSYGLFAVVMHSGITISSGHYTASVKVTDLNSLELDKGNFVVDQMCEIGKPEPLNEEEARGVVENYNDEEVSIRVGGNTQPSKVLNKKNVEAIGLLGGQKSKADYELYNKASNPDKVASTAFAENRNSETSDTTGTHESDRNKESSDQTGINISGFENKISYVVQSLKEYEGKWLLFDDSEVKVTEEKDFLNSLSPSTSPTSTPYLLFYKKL
T1 sequence (Q8TAF3 whole entry partner): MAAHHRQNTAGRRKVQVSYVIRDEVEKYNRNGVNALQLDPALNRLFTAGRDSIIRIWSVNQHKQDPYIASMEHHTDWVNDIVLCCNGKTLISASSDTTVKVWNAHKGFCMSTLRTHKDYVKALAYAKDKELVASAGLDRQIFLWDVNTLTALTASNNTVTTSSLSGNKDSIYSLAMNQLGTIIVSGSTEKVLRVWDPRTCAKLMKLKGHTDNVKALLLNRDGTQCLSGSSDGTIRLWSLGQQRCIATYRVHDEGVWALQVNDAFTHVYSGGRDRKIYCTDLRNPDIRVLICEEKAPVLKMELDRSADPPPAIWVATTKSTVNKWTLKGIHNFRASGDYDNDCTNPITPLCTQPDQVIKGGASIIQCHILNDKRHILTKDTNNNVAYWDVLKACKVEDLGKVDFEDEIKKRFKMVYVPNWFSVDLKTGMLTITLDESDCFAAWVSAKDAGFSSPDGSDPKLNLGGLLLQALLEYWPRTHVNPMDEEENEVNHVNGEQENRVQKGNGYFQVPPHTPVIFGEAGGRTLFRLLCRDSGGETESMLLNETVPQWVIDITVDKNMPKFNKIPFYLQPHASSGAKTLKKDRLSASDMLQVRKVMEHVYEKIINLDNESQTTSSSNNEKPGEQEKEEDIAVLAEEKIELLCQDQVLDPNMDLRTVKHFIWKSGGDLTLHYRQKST

As for `COc1ncnc(C2CC2)c1-c1ncc2cc(-c3c(C)noc3C)c(=O)n(Cc3ccc(-c4nc(C(F)(F)F)cn4C4CC4)cc3)c2n1` [Compound I-155], the IC50 in the assay on HCC1806 Ub-PCNA (USP1) is under 10 nM. The GI50 with MDA-MB-436 cells was under 10 nM.
In turn, `COc1ncnc(C2CC2)c1-c1nc(C)c2cc(-c3cnn(C)c3)c(=O)n(Cc3ccc(-c4nc(C(F)(F)F)cn4C4CC4)cc3)c2n1` [Compound I-148, 8-({4-[1-Cyclopropyl-4-(Trifluoromethyl)Imidazol-2-Yl]Phenyl}Methyl)-2-(4-Cyclopropyl-6-Methoxypyrimidin-5-Yl)-4-Methyl-6-(1-Methylpyrazol-4-Yl)Pyrido[2,3-d]Pyrimidin-7-One] registered an IC50 in the assay on HCC1806 Ub-PCNA (USP1) of under 10 nM. Also, the GI50 with MDA-MB-436 cells is under 10 nM.
For the compound `COc1ncnc(C2CC2)c1-c1ncc2cc(-c3cnn(C)n3)c(=O)n(Cc3ccc(-c4nc(C(F)(F)F)cn4C4CC4)cc3)c2n1` [Compound I-151], the IC50 with HCC1806 Ub-PCNA (USP1) was under 10 nM. In the assay on MDA-MB-436 cells, this compound showed a GI50 of 10 to 100 nM.
As for `COc1ncnc(C2CC2)c1-c1ncc2ccc(=O)n(Cc3ccc(-c4nc(C(F)(F)F)cn4C(C)C)cc3)c2c1F` [Compound I-27, 7-(4-cyclopropyl-6-methoxypyrimidin-5-yl)-8-fluoro-1-({4-[1-isopropyl-4-(trifluoromethyl)imidazol-2-yl]phenyl}methyl)-1,6-naphthyridin-2-one], the IC50 (in assay [1]; in the assay on HCC1806 Ub-PCNA (USP1)) was 10 to 100 nM throughout. This compound also came in with a GI50 with MDA-MB-436 cells of 10 to 100 nM.
For `COc1ncnc(C2CC2)c1-c1ncc2ccc(=O)n(Cc3ccc(-c4cccc(C(F)(F)F)n4)cc3)c2n1` [Compound I-36, 2-(4-cyclopropyl-6-methoxypyrimidin-5-yl)-8-({4-[6-(trifluoromethyl)pyridin-2-yl]phenyl}methyl)pyrido[2,3-d]pyrimidin-7-one], the IC50 (in assay [1]; with HCC1806 Ub-PCNA (USP1)) was 10 to 100 nM throughout. Moreover, the GI50 with MDA-MB-436 cells was in the range of 10 to 100 nM.
Take `COc1ncnc(C2CC2)c1-c1nc(C)c2cc(-c3ncnn3C)c(=O)n(Cc3ccc(-c4nc(C(F)(F)F)cn4C4CC4)cc3)c2n1` [Compound I-167, 8-({4-[1-Cyclopropyl-4-(Trifluoromethyl)Imidazol-2-Yl]Phenyl}Methyl)-2-(4-Cyclopropyl-6-Methoxypyrimidin-5-Yl)-4-Methyl-6-(2-Methyl-1,2,4-Triazol-3-Yl)Pyrido[2,3-d]Pyrimidin-7-One]: the IC50 in the assay on HCC1806 Ub-PCNA (USP1) was in the range of 10 to 100 nM. Besides, in the assay with MDA-MB-436 cells, the GI50 was in the range of 10 to 100 nM.
`COc1ncnc(C2CC2)c1-c1ncc2cc(-c3cn(C)nn3)c(=O)n(Cc3ccc(-c4nc(C(F)(F)F)cn4C4CC4)cc3)c2n1` [Compound I-150] returned an IC50 in the assay with HCC1806 Ub-PCNA (USP1) of under 10 nM. The same compound gave a GI50 in the assay with MDA-MB-436 cells of 10 to 100 nM.
On the same counts, the results for `COc1ncnc(C2CC2)c1-c1ncc2cc(-c3ncnn3C)c(=O)n(Cc3ccc(-c4nc(C(F)(F)F)cn4C(C)C)cc3)c2n1` [Compound I-168, 2-(4-Cyclopropyl-6-Methoxypyrimidin-5-Yl)-8-({4-[1-Isopropyl-4-(Trifluoromethyl)Imidazol-2-Yl]Phenyl}Methyl)-6-(2-Methyl-1,2,4-Triazol-3-Yl)Pyrido[2,3-d]Pyrimidin-7-One] are under 10 nM and 10 to 100 nM.
On the same counts, the results for `COc1ncnc(C2CC2)c1-c1ncc2cc(-c3ncn(C)n3)c(=O)n(Cc3ccc(-c4nc(C(F)(F)F)cn4C4CC4)cc3)c2n1` [Compound I-153, 8-({4-[1-cyclopropyl-4-(trifluoromethyl)imidazo]-2-yl]phenylmethyl)-2-(4-cyclopropyl-6-methoxypyrimidin-5-yl)-6-(1-methyl-1,2,4-triazol-3-yl)pyrido[2,3-d]pyrimidin-7-one] are under 10 nM and 10 to 100 nM.
In turn, `COc1ncnc(C2CC2)c1-c1nc(C)c2cc(C3CCN(C)CC3)c(=O)n(Cc3ccc(-c4nc(C(F)(F)F)cn4C4CC4)cc3)c2n1` [Compound I-157, 8-({4-[1-Cyclopropyl-4-(Trifluoromethyl)Imidazol-2-Yl]Phenyl}Methyl)-2-(4-Cyclopropyl-6-Methoxypyrimidin-5-Yl)-4-Methyl-6-(1-Methylpiperidin-4-Yl)Pyrido[2,3-d]Pyrimidin-7-One] registered an IC50 in the assay with HCC1806 Ub-PCNA (USP1) of under 10 nM. Besides, in the assay with MDA-MB-436 cells, the GI50 is under 10 nM.
The compound `COc1ncnc(C2CC2)c1-c1ncc2cc(-c3ncnn3C)c(=O)n(Cc3ccc(-c4nc(C(F)(F)F)cn4C4CC4)cc3)c2n1` [Compound I-156] yielded an IC50 with HCC1806 Ub-PCNA (USP1) of 10 to 100 nM. Moreover, the GI50 in the assay with MDA-MB-436 cells is 10 to 100 nM.
In turn, `COc1cc(Cn2c(=O)ccc3c(C)nc(-c4c(OC)ncnc4C4CC4)nc32)ccc1-c1nc(C(F)(F)F)cn1C1CC1` [Compound I-152, 8-({4-[1-cyclopropyl-4-(trifluoromethyl)imidazo]-2-yl]-3-methoxyphenylmethyl)-2-(4-cyclopropyl-6-methoxypyrimidin-5-yl)-4-methylpyrido[2,3-d]pyrimidin-7-one] gave an IC50 in the assay on HCC1806 Ub-PCNA (USP1) of under 10 nM. The compound further registered a GI50 with MDA-MB-436 cells of under 10 nM.
Regarding `COc1cc(Cn2c(=O)ccc3c(C)nc(-c4c(OC)ncnc4C4CC4)nc32)cc(F)c1-c1nc(C(F)(F)F)cn1C1CC1` [Compound I-163], the IC50 in the assay with HCC1806 Ub-PCNA (USP1) was under 10 nM. Also, in the assay on MDA-MB-436 cells, the GI50 is under 10 nM.

As usually defined, the IC50 is the concentration that gives 50% inhibition. In general, GI50 refers to the concentration giving 50% growth inhibition.
